Reference: patent US20250353873A1, “COMPOUNDS AND METHODS FOR MODULATING APOE EXPRESSION” (Ionis Pharmaceuticals, Inc., priority 2024, published 2025)
Strand notation (5' to 3'): a small letter for the sugar, then the base; units joined by * are phosphorothioate-linked, units joined directly phosphodiester-linked; [ ] holds rarer units or linkages, { } end groups; capitals alone tell only the bases. [ms] = mesyl phosphoramidate linkage; e = 2'-O-(2-methoxyethyl) (MOE); k = constrained ethyl (cEt); [5mC] = 5-methylcytosine; d = 2'-deoxy (DNA)

Assays:
[1] = test system: human APOE RNA; assay: Dose-dependent reduction of human APOE RNA in HepG2 cells, electroporation, 20,000 cells per well, average of GAPDH- and PPIA-normalized results (Example 4, Table 12); format: cell-based; conditions: HepG2, 20,000 cells per well; for IC50: approximately 24 hours
Experimental: HepG2 cells plated at a density of 20,000 cells per well were treated by electroporation with various concentrations of modified oligonucleotide as specified in the tables below. […] APOE RNA levels were measured using the human primer probe set RTS3073 (described herein above). APOE RNA levels were normalized to human GAPDH, and human PPIA. Human GAPDH was amplified using human primer probe set RTS104 (described herein above). Human PPIA was amplified using human primer probe set mk_cycloA_2nd (described herein above) The average of the GAPDH-normalized results and the PPIA-normalized results are presented in the table below as percent APOE RNA, relative to the amount of APOE RNA in untreated control cells (% UTC). The half maximal inhibitory concentration (IC50) of each modified oligonucleotide was calculated in GraphPad Prism 10 (GraphPad Software, San Diego, CA) and is also presented in the table below.

[2] = test system: human APOE RNA; assay: Dose-dependent inhibition of human APOE RNA in differentiated SH-SY5Y cells, free uptake, 5 days (Example 5); format: cell-based
Experimental: Modified oligonucleotides selected from the examples above were tested at various doses in differentiated SH-SY5Y cells. The modified oligonucleotides were tested in a series of experiments that had the same culture conditions.
Differentiated SH-SY5Y cells plated at a density of 10,000 cells per well were treated by free uptake with various concentrations of modified oligonucleotide as specified in the tables below. […] APOE RNA levels were measured using the human primer probe set RTS3073 (described herein above). APOE RNA levels were normalized to human PPIA. Human PPIA was amplified using human primer probe set mk_cycloA_2nd (described herein above). Results are presented as percent APOE RNA, relative to the amount of APOE RNA in untreated control cells (% UTC). The half maximal inhibitory concentration (IC50) of each modified oligonucleotide was calculated in GraphPad Prism 10 (GraphPad Software, San Diego, CA) and is also presented in the tables below.

[3] = test system: human APOE RNA; assay: Activity in APOE C57BL/6NTac-Apoeem7250 knock-in mice, single ICV bolus, 4 weeks (Example 10); format: in vivo; conditions: single ICV bolus 300 μg
How it was run: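 Human APOE RNA, quantified by real-time RT-PCR with RTS3073 and normalized to mouse Ppia, was read in cortical brain and spinal cord 4 weeks post dosing. Dosing was a single ICV bolus of 300 μg per knock-in mouse; values are % of PBS-treated animals.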

[4] = test system: human APOE RNA; assay: Activity in APOE C57BL/6NTac-Apoeem7250 knock-in mice, single ICV bolus, 8 weeks (Example 11); format: in vivo; conditions: for APOE RNA (% control) Cortex / APOE RNA (% control) Spinal Cord: single ICV bolus 300 μg, 8 weeks post treatment, normalized to mouse Ppia
How it was run: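 Cortical and spinal cord human APOE RNA quantified by RT-qPCR 8 weeks after a single 300 μg ICV dose in knock-in mice, Ppia-normalized. Values are percent of levels in PBS-treated animals.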

[5] = test system: human APOE RNA; assay: Potency (dose response, ED50) in APOE C57BL/6NTac-Apoeem7250 knock-in mice, 4 weeks (Example 14); format: in vivo; conditions: for ED 50 (μg) Cortex / ED 50 (μg) Spinal Cord: single ICV bolus, GraphPad Prism 10
Experimental: Modified oligonucleotides described above were tested in the APOE C57BL/6NTac-Apoeem7250 knock-in mouse model described above.
APOE C57BL/6NTac-Apoeem7250 knock-in mice were divided into groups of 3-4 mice each. A group of 3-4 mice received a single ICV bolus with PBS as a negative control.
Four weeks post treatment, mice were sacrificed, and RNA was extracted from cortical brain tissue and spinal cord for quantitative real-time RT-PCR analysis of RNA expression of […] using human primer probe set RTS3073 (described herein above). APOE RNA levels were normalized to mouse Ppia. Mouse Ppia was amplified using primer probe set m_cyclo24 (described herein above). Results are presented as percent human APOE RNA relative to the amount of APOE RNA in PBS treated animals, (% control). N.C. indicates values that were not calculated. Each experiment is identified in separate tables below.
The half maximal effective dose (ED50) of each modified oligonucleotide was calculated using GraphPad Prism 10 software (GraphPad Software, San Diego, CA).

[6] = cortex, 4 weeks post treatment, normalized to mouse Ppia
[7] = spinal cord, 4 weeks post treatment, normalized to mouse Ppia

1778130: modified oligonucleotide complementary to human APOE RNA (eA*e[5mC]eTeTeG*kG*dT*dG[ms]dA[ms]dA*dT*d[5mC]*dT*dT*dT*dA[ms]kTkT*eA*eA; antisense) [compound 1778130]
APOE RNA (% UTC) ([1]; 5 nM): 99 % UTC
APOE RNA (% UTC) ([1]; 13 nM): 100 % UTC
APOE RNA (% UTC) ([1]; 33 nM): 85 % UTC
APOE RNA (% UTC) ([1]; 82 nM): 72 % UTC
APOE RNA (% UTC) ([1]; 205 nM): 52 % UTC
APOE RNA (% UTC) ([1]; 512 nM): 45 % UTC
APOE RNA (% UTC) ([1]; 1,280 nM): 20 % UTC
APOE RNA (% UTC) ([1]; 3,200 nM): 12 % UTC
APOE RNA (% UTC) ([1]; 8,000 nM): 18 % UTC
APOE RNA (% UTC) ([1]; 20,000 nM): 9 % UTC
IC50 [1]: 310 nM
APOE RNA (% UTC) ([2]; 5 nM, 5 days (Table 14)): 78 % UTC
APOE RNA (% UTC) ([2]; 13 nM, 5 days (Table 14)): 75 % UTC
APOE RNA (% UTC) ([2]; 33 nM, 5 days (Table 14)): 75 % UTC
APOE RNA (% UTC) ([2]; 82 nM, 5 days (Table 14)): 51 % UTC
APOE RNA (% UTC) ([2]; 205 nM, 5 days (Table 14)): 54 % UTC
APOE RNA (% UTC) ([2]; 512 nM, 5 days (Table 14)): 56 % UTC
APOE RNA (% UTC) ([2]; 1,280 nM, 5 days (Table 14)): 51 % UTC
APOE RNA (% UTC) ([2]; 3,200 nM, 5 days (Table 14)): 31 % UTC
APOE RNA (% UTC) ([2]; 8,000 nM, 5 days (Table 14)): 24 % UTC
APOE RNA (% UTC) ([2]; 20,000 nM, 5 days (Table 14)): 12 % UTC
IC50 ([2]; 5 days (Table 14)): 370 nM
APOE RNA (% control) Cortex [3, 6]: 31 % control
APOE RNA (% control) Spinal Cord [3, 7]: 34 % control
APOE RNA (% control) Cortex [4]: 23 % control
APOE RNA (% control) Spinal Cord [4]: 18 % control
APOE RNA (% control) Cortex ([5]; ICV dose 10 μg): 123 % control
APOE RNA (% control) Cortex ([5]; ICV dose 30 μg): 100 % control
APOE RNA (% control) Cortex ([5]; ICV dose 100 μg): 69 % control
APOE RNA (% control) Cortex ([5]; ICV dose 300 μg): 74 % control
APOE RNA (% control) Cortex ([5]; ICV dose 700 μg): 37 % control
ED 50 (μg) Cortex [5]: 502.4 µg
APOE RNA (% control) Spinal Cord ([5]; ICV dose 10 μg): 88 % control
APOE RNA (% control) Spinal Cord ([5]; ICV dose 30 μg): 35 % control
APOE RNA (% control) Spinal Cord ([5]; ICV dose 100 μg): 27 % control
APOE RNA (% control) Spinal Cord ([5]; ICV dose 300 μg): 22 % control
APOE RNA (% control) Spinal Cord ([5]; ICV dose 700 μg): 32 % control
ED 50 (μg) Spinal Cord [5]: 35.9 µg

1693105: 6-10-4 MOE gapmer CTTGGTGAATCTTTATTAAA, linkages sosssszzzssssszssss (e[5mC]*eTeT*eG*eG*eT*dG[ms]dA[ms]dA[ms]dT*d[5mC]*dT*dT*dT*dA[ms]dT*eT*eA*eA*eA) [compound 1693105]
APOE RNA (% control) Cortex ([3]; Cortex, C57BL/6NTac-Apoeem7250 knock-in mice, 4 weeks (Table 21)): 54 % control
APOE RNA (% control) Cortex ([3]; Cortex, C57BL/6NTac-Apoeem7250 knock-in mice, 4 weeks (Table 22)): 65 % control
APOE RNA (% control) Spinal Cord ([3]; Spinal Cord, C57BL/6NTac-Apoeem7250 knock-in mice, 4 weeks (Table 21)): 51 % control
APOE RNA (% control) Spinal Cord ([3]; Spinal Cord, C57BL/6NTac-Apoeem7250 knock-in mice, 4 weeks (Table 22)): 87 % control
APOE RNA (% control) Cortex [4]: 58 % control
APOE RNA (% control) Spinal Cord [4]: 43 % control
APOE RNA (% control) Cortex ([5]; ICV dose 10 μg): 100 % control
APOE RNA (% control) Cortex ([5]; ICV dose 30 μg): 85 % control
APOE RNA (% control) Cortex ([5]; ICV dose 100 μg): 77 % control
APOE RNA (% control) Cortex ([5]; ICV dose 300 μg): 59 % control
APOE RNA (% control) Cortex ([5]; ICV dose 700 μg): 48 % control
ED 50 (μg) Cortex [5]: 573.3 µg
APOE RNA (% control) Spinal Cord ([5]; ICV dose 10 μg): 71 % control
APOE RNA (% control) Spinal Cord ([5]; ICV dose 30 μg): 71 % control
APOE RNA (% control) Spinal Cord ([5]; ICV dose 100 μg): 47 % control
APOE RNA (% control) Spinal Cord ([5]; ICV dose 300 μg): 49 % control
APOE RNA (% control) Spinal Cord ([5]; ICV dose 700 μg): 61 % control
ED 50 (μg) Spinal Cord [5]: 892.8 µg

^mCksTksTksGdzGdzTdzGdzAdzAdzTds^mCdsTdsTdsTdsAdsTdsTksAksAdzAk (antisense k[5mC]*kT*kT*dG[ms]dG[ms]dT[ms]dG[ms]dA[ms]dA[ms]dT*d[5mC]*dT*dT*dT*dA*dT*kT*kA*dA[ms]kA) [Compound No. 1785602]
APOE RNA (% UTC) ([1]; 5 nM): 97 % UTC
APOE RNA (% UTC) ([1]; 13 nM): 91 % UTC
APOE RNA (% UTC) ([1]; 33 nM): 85 % UTC
APOE RNA (% UTC) ([1]; 82 nM): 70 % UTC
APOE RNA (% UTC) ([1]; 205 nM): 56 % UTC
APOE RNA (% UTC) ([1]; 512 nM): 36 % UTC
APOE RNA (% UTC) ([1]; 1,280 nM): 33 % UTC
APOE RNA (% UTC) ([1]; 3,200 nM): 8 % UTC
APOE RNA (% UTC) ([1]; 8,000 nM): 21 % UTC
APOE RNA (% UTC) ([1]; 20,000 nM): 3 % UTC
IC50 [1]: 300 nM
APOE RNA (% UTC) ([2]; 5 nM, 5 days (Table 13)): 74 % UTC
APOE RNA (% UTC) ([2]; 5 nM, 5 days (Table 14)): 84 % UTC
APOE RNA (% UTC) ([2]; 13 nM, 5 days (Table 13)): 60 % UTC
APOE RNA (% UTC) ([2]; 13 nM, 5 days (Table 14)): 106 % UTC
APOE RNA (% UTC) ([2]; 33 nM, 5 days (Table 13)): 64 % UTC
APOE RNA (% UTC) ([2]; 33 nM, 5 days (Table 14)): 83 % UTC
APOE RNA (% UTC) ([2]; 82 nM, 5 days (Table 13)): 49 % UTC
APOE RNA (% UTC) ([2]; 82 nM, 5 days (Table 14)): 69 % UTC
APOE RNA (% UTC) ([2]; 205 nM, 5 days (Table 13)): 40 % UTC
APOE RNA (% UTC) ([2]; 205 nM, 5 days (Table 14)): 42 % UTC
APOE RNA (% UTC) ([2]; 512 nM, 5 days (Table 13)): 30 % UTC
APOE RNA (% UTC) ([2]; 512 nM, 5 days (Table 14)): 32 % UTC
APOE RNA (% UTC) ([2]; 1,280 nM, 5 days (Table 13)): 36 % UTC
APOE RNA (% UTC) ([2]; 1,280 nM, 5 days (Table 14)): 26 % UTC
APOE RNA (% UTC) ([2]; 3,200 nM, 5 days (Table 13)): 32 % UTC
APOE RNA (% UTC) ([2]; 3,200 nM, 5 days (Table 14)): 19 % UTC
APOE RNA (% UTC) ([2]; 8,000 nM, 5 days (Table 13)): 15 % UTC
APOE RNA (% UTC) ([2]; 8,000 nM, 5 days (Table 14)): 10 % UTC
APOE RNA (% UTC) ([2]; 20,000 nM, 5 days (Table 13)): 6 % UTC
APOE RNA (% UTC) ([2]; 20,000 nM, 5 days (Table 14)): 8 % UTC
IC50 ([2]; 5 days (Table 13)): 90 nM
IC50 ([2]; 5 days (Table 14)): 230 nM
APOE RNA (% control) Cortex [3, 6]: 34 % control
APOE RNA (% control) Spinal Cord [3, 7]: 33 % control
reduction of human APOE RNA in the cortex ([4]; APOE knock-in mouse model, 8 weeks post administration, assay of Example 11): 73%
APOE RNA (% control) Cortex [4]: 27 % control
APOE RNA (% control) Spinal Cord [4]: 26 % control
